In patent US7842683B2, “Neurotherapeutic compositions and method” (Revaax Pharmaceuticals, LLC, priority 1999, dated 2010):

Tests used:
golden hamsters = assay: Seed finding model of anxiety; format: in vivo, Syrian golden hamsters (Mesocricetus auratus)
Description: Clavulanic acid (CLAV) is structurally similar to the beta-lactam antibiotics. A most robust and simple bioassay for screening beta-lactams for CNS activity is the golden hamster seed finding model of anxiety. Briefly, hamsters are deprived of food overnight. The following day they are exposed to the additional stress of being taken from their home cage and placed in a novel environment for a few minutes. This manipulation stimulates the release of the stress hormone cortisol (FIG. 37). During their absence from the home cage, sunflower seeds are hidden under the bedding in one of the corners. When returned to the home cage, hamsters routinely scramble along the walls for 1-2 min before settling down, locating and eating the seeds. However, animals treated with the benzodiazepine anxiolytic chlordiazepoxide find seeds in less than 10 sec.
Male, Syrian golden hamsters (Mesocricetus auratus) (120-130 g) obtained from Harlan Sprague-Dawley Laboratories (Indianapolis, Ind.) were housed individually in Plexiglas cages (24 cm×24 cm×20 cm), maintained on a reverse light:dark cycle (14L:10D; lights on at 19:00 hr) and provided food and water ad libitum. A range of concentrations of CLAV (saline vehicle, 0.1, 1.0, 10, 100 1,000 ng/kg) were tested in six groups of hamsters (4-8/group)(FIG. 25). All tests were conducted during the dark phase of the circadian cycle under dim red illumination. Prior to testing all animals were fasted for 20-24 hrs. Ninety min after intraperitoneal (IP) injection of drug, animals were taken from their home cage and placed into a holding cage for 2 min. During their absence, six sunflower seeds were buried under the bedding in one corner of their home cage. Animals were placed back into their home cage randomly facing any one of the empty corners and timed for their latency to find the seeds in a five min observation period. Latency times were analyzed with a one-way ANOVA followed by Scheffe's post hoc tests. Assumption of equal variances was tested (Hartley's F-max=2.1 p>0.05)
It was hypothesized that CLAV functioned as an anxiolytic in the seed finding assay by blocking NAALADase activity in the brain. If this notion were true then it would be predicted that drugs known to block NAALADase should also enhance seed finding. To this end, animals were treated with N-acetyl-beta-aspartyl-glutamic acid (beta-NAAG), a competitive inhibitor of NAALADase (Serval et al., 1992) and tested in the seed finding model of anxiety. The study was similar to that outlined in Section I with one notable exception. […] Beta-NAAG (FW 304) was given in a dose of 3 ng in a volume of 1 μl saline ICV. The average adult hamster brain weights ca. 1.2 g of which 22% is extracellular fluid. The estimated beta-NAAG concentration was 11 ng/ml or 36 nM.
Two groups of six animals each were fasted overnight as previously described and tested the following day. One group was treated with beta-NAAG and the other saline vehicle and one hr later timed for latency to find the hidden sunflower seeds. A Student t-test for unpaired data was used for statistical comparisons.

rats = assay: Motor activity in an open field (plus-maze animals); format: in vivo, rat; settings: 1 mM direct injection into the brain, 30 min prior to plus-maze
Method: However, this depression of motor activity disappears following repeated administration of CDP over several days. […] To control for any non-specific effects of Mox and CDP on motor activity following their direct injection into the brain, animals were tested in the open field 30 min prior to testing in the plus (FIG. 18).
Immediately after each of the plus-maze tests reported above in Section II, animals were tested for general motor activity in an “open field.” Animals were placed into a large clean Plexiglas cage (48×32×40 cm) devoid of bedding. This open field was delineated into equal quadrants by tape on the underside of the cage. Animals were scored for motor activity by counting the number of quadrants traversed in 1 min.

Male Wistar rats = assay: Elevated plus-maze (anxiolytic activity); format: in vivo, rat; settings: 1 mM, 2 ul into lateral ventricle, 60 min
Description: (§1) The elevated plus-maze was developed for the detection of anxiolytic and anxiogenic drug effects in the rat (Pellow et al., 1985). The method has been validated behaviorally, physiologically, and pharmacologically. The plus-maze consists of two open arms and two enclosed arms. […] Conversely, anxiogenic compounds like yohimbin or amphetamines reduce open arm entries and time spent in the open arms.
Male Wistar rats weighing 250-300 g were group housed in a normal 12:12 light-dark cycle light on at 0800 hr and provide food and water ad libitum. The plus-maze consisted of two open arms, 50×10 cm, and two enclosed arms 50×10×40 cm with an open roof, arranged such that the two open arms were opposite to each other. The maze was elevated to a height of 50 cm.
Eight animals were tested in the plus-maze 90 min following IP injection with 50 μg/kg Mox and saline vehicle. The order of treatments was counter balanced with at least 48 hrs between injections. At the start of the experiment the animal was place in the center of the plus maze facing the closed arm. Over a five min observation period, animals were scored for the latency to enter the closed arm, time spent in the closed arm and the number of open arm entries following the first occupation of the closed arm (FIG. 7).
Because Mox and CDP have different bioavailability profiles, e.g. brain penetrance, their CNS activity could not be compared by giving systemic injections of equimolar concentrations of each drug. Instead it was necessary to give both drugs directly into the cerebroventricular system to by pass the blood brain barrier. Animals were anesthetized with sodium pentobarbital (50 mg/kg), implanted with microinjection guide cannulae aimed at the lateral ventricle and allowed to recover for two days before testing. To groups of six animals each were tested with Mox or CDP. Each animals received a injection of drug and 0.9% NaCl vehicle on two separate days. The order of injections was counterbalanced and separated by two days. Both Mox and CDP were prepared in 0.9% NaCl at a concentration of 1 mM. All injections were given in a volume of 2 ul over 10 secs in fully conscious, restrained animals. Sixty min later animals were tested in the plus-maze for a 3 min observation period and scored for behaviors as noted previously.
as §1, with “screening” for “the detection of”
Male Wistar rats weighing 250-300 g were group housed in a normal 12:12 light-dark cycle with light on at 0800 hr and provided food and water ad libitum. The plus-maze consisted of two open arms, 50 cm long, 10 cm wide, with walls 40 cm high made of clear Plexiglas. The two closed arms had the same dimensions but included a roof. The Plexiglas for the closed arms was painted black. Each pair of arms was arranged opposite to each other to form the plus-maze. The maze was elevated to a height of 50 cm. Eighteen animals were tested in the plus-maze 90 min following the IP injection of 1.0 μg/kg CLAV, 50 or vehicle control in a volume of ca. 0.3 ml. The order of treatments was counter balanced with at least 48 hrs between injections. At the start of the experiment, the animal was placed at the end of one of the open arms. Over a five min observation period, animals were scored for the latency to enter the closed arm, time spent in the closed arm and the number of open arm entries following the first occupation of the closed arm. The study produced tables of repeated measures. The data between treatments were compared with a two-way, repeated measures ANOVA followed by Bonferroni post hoc tests. […]

male golden hamsters = assay: Resident/intruder paradigm of offensive aggression; format: in vivo, Syrian golden hamsters (Mesocricetus auratus)
Method: Male Syrian golden hamsters (Mesocricetus auratus) (140-150 g) obtained from Harlan Sprague-Dawley Laboratories (Indianapolis, Ind.) were housed individually in Plexiglas cages (24 cm×24 cm×20 cm), maintained on a reverse light:dark cycle (14L:10D; lights on at 19:00 hr) and provided food and water ad libitum. Animals were acclimated to the reverse light:dark cycle for at least two weeks before testing. All behavioral tests were conducted during the dark phase of the circadian cycle. All animals were acquired and cared for in accordance with the guidelines published in the Guide for the Care and Use of Laboratory Animals (National Institutes of Health Publications No. 85-23, Revised 1985).
(§2) Agonistic behavior can be classified as either offensive or defensive aggression (Blanchard and Blanchard, 1977; Adams, […]; Albert and Walsh, 1984). Offensive aggression is characterized by the aggressor initiating an attack on an opponent, while defensive aggression lacks active approach. Both types of aggression have their own unique neurobehavioral systems. The stimuli that elicit offensive and defense attack are different, as are the sequences of behaviors that accompany each agonistic response. […] Offensive aggression is easily studied using male golden hamsters tested in a resident/intruder paradigm, an established model of offensive aggression (Ferris and Potegal 1988). Placing an unfamiliar male hamster into the home cage of another male hamster elicits a well-defined sequence of agonistic behaviors from the resident that includes offensive aggression.
(§3) Hamsters are nocturnal and as such all behavioral tests were performed during the first four hrs of the dark phase under dim red illumination. The resident was scored for offensive aggression, e.g., latency to bite the intruder, the total number of bites, total contact time with the intruder and flank marking over a 10 min test period (Ferris and Potegal, 1988). Flank marking is a form of olfactory communication in which a hamsters arches its back and rubs pheromone producing flank glands against objects in the environment (Johnson, 1986).
Parametric data, i.e., latencies and contact time, were analyzed with a one-way ANOVA followed by Newman-Keuls post hoc tests. Non parametric data, i.e., number of bites and flank marks, were analyzed with Kruskal-Wallis tests followed by Mann-Whitney U tests to determine differences between groups. Two sample comparisons were analyzed with paired and unpaired t-Tests for parametric data and Wilcoxon and Mann-Whitney Tests for paired and unpaired non-parametric data, respectively.
as §2, with “by an” for “by the”, “an opponent; while,” for “an opponent, while”, “Potegal 1988) in the context of defending the home burrow.” for “Potegal 1988).”
as §3, with “Flank marking is a form of olfactory communication in which a hamsters arches its back and rubs pheromone producing flank glands against objects in the environment (Johnson, 1986).” left out

hamsters = assay: Olfactory discrimination: latency to find hidden sunflower seeds; format: in vivo, Syrian golden hamsters (Mesocricetus auratus); settings: 1 mg/kg intracerebroventricular, sixty min, five min observation
Method: Sixteen animals were treated with vehicle or 50 μg/kg Mox and tested for olfactory discrimination by measuring their latency to find hidden sunflower seeds (FIG. 5). The injections were counterbalanced with each animal receiving each treatment. Prior to testing animals were fasted for 24 hrs. Ninety minutes after injection animals were briefly taken from their home cage while six sunflower seeds were buried under the bedding in one corner. Animals were placed back into their home cage and scored for the latency to find the seeds in a ten min observation period. […] In fact, not one of the sixteen animals consumed all of the seeds following saline as compared to all animals treated with Mox.
Six animals received an intracerebroventricular injection of vehicle or 1 mg/kg PPP and tested for olfactory discrimination by measuring their latency to find hidden sunflower seeds (FIG. 16). The injections were counterbalanced with each animal receiving each treatment. Prior to testing animals were fasted for 24 hrs. Sixty min. After injection animals were briefly taken from their home cage while six sunflower seeds were buried under the bedding in one corner. Animals were placed back into their home cage and scored for the latency to find the seeds in a five min. Observation period.

[1] = in vivo; cited from earlier work
[2] = Estimated fluid and brain concentrations after dosing hamsters; format: in vivo, hamster
Method: The adult male hamsters used in these studies weighed around 125 g. […] CLAV has a volume of distribution approximating the extracellular fluid volume. The extracellular water content of lean body mass is approximately 22%.
To this end, animals were treated with N-acetyl-beta-aspartyl-glutamic acid (beta-NAAG), a competitive inhibitor of NAALADase (Serval et al., 1992) and tested in the seed finding model of anxiety. The study was similar to that outlined in Section I with one notable exception. […] Beta-NAAG (FW 304) was given in a dose of 3 ng in a volume of 1 μl saline ICV. The average adult hamster brain weights ca. 1.2 g of which 22% is extracellular fluid.

In the case of `CNC1=Nc2ccc(Cl)cc2C(c2ccccc2)=[N+]([O-])C1` [CDP, Chlordiazepoxide], the “time to find seeds” value (golden hamsters; dose not given) is reported as “less than 10 sec”, the “general motor activity in the open field” value (rats) is reported as “no significant effect” and the “time spent in the closed arm (dark)” value (Male Wistar rats) is reported as “no effect”. For the same compound, the “latency to enter the closed arm” value (Male Wistar rats; 3 min observation) was “no effect”.

With Ala-D-γ-Glu-Lys-D-Ala-D-Ala [PPP] the contact time (male golden hamsters; ca. 1 mg/kg ICV) was “no significant difference”, the flank marking (male golden hamsters; ca. 1 mg/kg ICV) was “no significant difference” and the number of bites (male golden hamsters; ca. 1 mg/kg ICV, sixty minutes) was “reduced”. The latency to bite (male golden hamsters; ca. 1 mg/kg in 1 μl into lateral ventricle, sixty minutes) was “significantly increased” and the “latency to find the seed” value (hamsters) was “significantly (p<0.05) reduced”.

For `CC(=O)N[C@@H](CC(=O)N[C@@H](CCC(=O)O)C(=O)O)C(=O)O` [beta-NAAG, N-acetyl-beta-aspartyl-glutamic acid], the “blood-brain barrier transport / CNS penetrability” value [1] is given as “does not readily cross the blood-brain barrier”, the “measures of offensive aggression (latency to bite, bites, contact time, flank marking)” value (male golden hamsters; 3 ng ICV, after the seed finding assay) is given as “no significant differences” and the “estimated concentration in brain extracellular fluid (molar)” value ([2]; beta-NAAG 3 ng ICV, FW 304) is given as 36 nM. For the same compound, the “estimated concentration in brain extracellular fluid” value ([2]; beta-NAAG 3 ng in 1 μl ICV, brain ca. 1.2 g, 22% extracellular fluid) was 11 ng/mL, the “latency to find the seeds vs saline vehicle” value (golden hamsters; 3 ng ICV, one hr, five min observation) was “significantly (p<0.001) different” and the “mean latency to find the seeds” value (golden hamsters; 3 ng/μl microinjected, former vehicle animals three days later) was 21.8 ± 9.7 s.
